Entries after “also recorded” stand apart in the source; their conditions may differ. Where two headings read alike, the source gives them in different places. Where a SMILES comes first, the peptide text is derived from it. [ ]: non-standard residue; d: D form. β3hL = CC(C)C[C@H](N)CC(=O)O; Nva = CCC[C@H](N)C(=O)O
Tests used:
[1] = test system: HDAC-I; conditions: cited from earlier work; for HDAC-I inhibitor?: from cited references; for activity against class I HDACs: in words
[2] = Toxicity on dstet5 cells; assay type: cell-based, chicken; conditions: chicken; dstet5 cells; concentration that reduces 50% of cell viability
[3] = test system: HBV cccDNA; assay: cccDNA-dependent DHBV pgRNA / cccDNA transcription in dstet5 cells; assay type: cell-based; conditions: for Selectivity Index (SI): CC50 divided by EC50; for cccDNA transcription: Dstet5 cells
Excerpt: Most HBV producing cells lines produce HBV gene products from an HBV transgene integrated into the host chromosome, and thus cccDNA is not the major source of viral product. This makes screening for drugs that target cccDNA difficult. Cell lines were produced in which viral gene products are dependent upon cccDNA. It was established human Hep G2 and chicken hepatoma (LMH)-stable cell lines for this purpose with tetracycline (tet) regulated HBV/DHBV. […] Upon addition of tet back to media to block transgene transcription, and removal of PFA to allow the viral DNA synthesis in the pgRNA-containing capsid to proceed, there is a rapid decline of viral RNA (day 1 and 2), with an eventual increase to a higher level when cccDNA is made after day 3.
With a system and conditions under which viral transcripts are produced in a cccDNA dependent manner (FIGS. 1, 2B), approximately 100 compounds were screened, including those from the inventors' in-house small compound library, those present in the inventors' Natural Products collection, and selected compounds including inhibitors of cellular epigenetic modification enzymes, including HDACs, HATs, Sirtuins, histone methyltransferases, histone demethylases and DNA methyltransferases.

[4] = test system: HDAC-II; conditions: cited from earlier work; for HDAC-II inhibitor?: from cited references
[5] = test system: HDAC III; conditions: cited from earlier work; for HDAC III inhibitor (printed in the HDAC-II inhibitor line): from cited references
[6] = test system: DHBV transgene integrated in host cellular chromosome; assay: DHBV pgRNA transcription from transgene integrated in host cellular chromosome (FIG. 4); assay type: cell-based
[7] = test system: dstet5 cells; assay: Toxicity on dstet5 cells; assay type: cell-based, chicken
[8] = test system: HBV cccDNA; assay: HBV cccDNA transcription in HepG2 cells; assay type: cell-based, HBV in human HepG2 cells
[9] = cited from earlier work
[10] = cited from earlier work; remark: listed apart in the source
[11] = test system: cccDNA; conditions: positive drug control; from our screen, Guo 2012; cited from earlier work
[12] = test system: WHV; assay: WHV-infected woodchuck study; assay type: in vivo; conditions: by 10 weeks of treatment, expected
Excerpt: The study uses 10 groups, with 5 animals per group, with drug treatment for 10 weeks followed by 10 weeks off drug (to test durability of affect). Due to variability in the levels of viremia and antigenemia, animals are stratified to groups by WHV viremia and antigenemia levels as determined seven days prior to study start, so that the average levels of both viral markers are evenly distributed among all groups of animals. Animals with abnormally low WHVsAg levels are not used in this study. Compound is administered daily, by a route and frequency to be finalized after bioavailability studies in rodents. The first day of dosing on the study is Study Day 1. Study Day 1 dose levels are calculated on a pretest body weight, and body weights are taken weekly for dose administration. Dosing range is as for the mouse study over four doses, with Group 10 treated with Barraclude as a reference compound (Tennant).
The primary endpoint is a dose dependent reduction in viremia and antigenemia on and off drug achieving durable off drug reductions.
The benchmark of positive activity is LFMAU treated animals.

[13] = test system: DHBV; assay: Duck hepadnavirus efficacy study; assay type: in vivo, Peking Ducks; conditions: by 3 weeks of treatment, expected
Excerpt: Six-week-old Peking Ducks, chronically infected with DHBV type 16 (Alberta Strain), are used. At 6 weeks, viremia and liver mass in ducks tends to have stabilized. Ducks are given, by either i.m. or oral gavage (depending on Aim 4 PK/TK results), test compound (3 dose groups, with dosing amount and frequency to depend on PK results, but aiming to achieve stable serum levels of at least 10 times the tissue culture IC50). There are three dose groups with 5-6 animals per dose group. Control dose groups (6 animals each group) include placebo treated animals and animals treated with either barraclude (1 mg/kg) or lamivudine (40 mg/kg) per day. At least three animals from all dose groups contribute at least one pre treatment and one post treatment liver biopsy. Treatment is for 10 weeks, since this exceeds the time for lamivudine to suppress viremia to beneath detectable levels and the reported ½ life of cccDNA in the duck. Ducks are followed with weekly serum collections for an additional 4 weeks after withdrawal of drug. Serum will be collected weekly.
Weekly serum is tested for standard “lab values” (hematology, albumin, AST, ALTs, The amount of DHBV viral DNA, sAg, sAb in the circulation is determined. Liver tissue derived from biopsies (some pre treatment and end of treatment from the same animals) is examined for DHBV DNA (cccDNA, replicative forms) and DHBV core (immunostained). […]

[14] = test system: HDAC; conditions: relative to Apicidin; cited from earlier work
[15] = in Gallus gallus, read-out: HBV cccDNA (EC50, uM)

CN(C)c1ccc(C(=O)NCCCCCCC(=O)NO)cc1 [4-(dimethylamino)-N-[7-(hydroxyamino)-7-oxoheptyl] benzamide]
HDAC-I inhibitor? [1]: YES^4,7 | CC50 [2]: > 100 µM | Selectivity Index (SI) [3]: >16 | EC50 [3, 15]: 6.25 µM | HDAC-II inhibitor? [4]: YES & | HDAC III inhibitor (printed in the HDAC-II inhibitor line) [5]: HDAC III^7,11

CCC(=O)CCCCC[C@@H]1NC(=O)[C@H]2CCCCN2C(=O)[C@H]([C@@H](C)CC)NC(=O)[C@H](Cc2cn(OC)c3ccccc23)NC1=O [Apicidin, cyclo(N—O-methyl-L-tryptophanyl-L-isoleucinyl-D-pipecolinyl-L-2-amino-8-oxodecanoyl)]
HDAC-I inhibitor? [1]: YES^4,5 | activity against class I HDACs [1]: nanomolar activity; also recorded: efficiently inhibits | DHBV pgRNA transcription from transgene integrated in host cellular chromosome [6]: dose-dependently stimulate | toxicity ([7]; at up to 20 uM for five days): no toxicity | CC50 ([7]; dstet5 cells, concentration that reduces 50% of cell viability): > 20 µM | activity against the DHBV, in culture [3]: highly active | cccDNA transcription ([3]; FIG. 3): repress | EC50 ([3]; FIG. 3, read-out: inhibition of cccDNA, EC50): ~0.18 µM | EC50 ([3]; dstet5 system, concentration that reduces 50% of the HBV specific signal (RNA and/or HBeAg), read-out: HBV cccDNA (EC50)): 0.183 µM | HBV cccDNA transcription [8]: repress | cccDNA levels [8]: reduced | aqueous solubility [9]: very poor | half life in vivo [10]: very poor | oral bioavailability ([10]; in vivo, po): very poor

O=C(CN(c1cc(C(F)(F)F)ccc1Cl)S(=O)(=O)c1ccccc1)NCc1ccncc1 [CCC-0975]
cccDNA formation [11]: inhibits

Cc1cn([C@H]2O[C@@H](CO)[C@H](O)[C@H]2F)c(=O)[nH]c1=O [LFMAU]
HBV viremia and antigenemia [12]: uniformly lost HBV viremia and even antigenemia | HBV viremia and antigenemia [13]: uniformly lost HBV viremia and even antigenemia

O=C(CCCCCCC(=O)NO)NO [Suberoyl bis hydroxamic acid (SBHA), Suberoyl bis hydroxamic acid]
HDAC-I inhibitor? [1]: YES^4,6,7,10 | CC50 [2]: > 40 µM | Selectivity Index (SI) [3]: >16 | EC50 [3, 15]: 2.5 µM | HDAC-II inhibitor? [4]: YES & | HDAC III inhibitor (printed in the HDAC-II inhibitor line) [5]: HDAC III^11

CC(/C=C/C(=O)NO)=C\[C@@H](C)C(=O)c1ccc(N(C)C)cc1 [Trichostatin A]
HDAC-I inhibitor? [1]: YES^5,6,9 | activity against class I HDACs [1]: inhibited | DHBV pgRNA transcription from transgene integrated in host cellular chromosome [6]: dose-dependently stimulate | CC50 [2]: > 20 µM | Selectivity Index (SI) [3]: >40 | cccDNA transcription ([3]; FIG. 3): repress | EC50 [3, 15]: 0.48 µM | HBV cccDNA transcription [8]: repress | cccDNA levels [8]: reduced | HDAC-II inhibitor? [4]: YES^4,5,6,9 | activity against class II HDACs ([4]; in words): inhibited | effect on class III HDACs (sirtuins) ([5]; in words): not affected

CCC(=O)CCCCC[C@@H]1NC(=O)Cn2cc(nn2)[C@H](C(C)CC)NC(=O)[C@H](Cc2c[nH]c3ccccc23)NC1=O (stereo partly shown) [analog 1]
anti HDAC potency [14]: without loss of anti HDAC potency

CCC[C@@H]1NC(=O)[C@H](C)NC(=O)C[C@H](CC(C)C)NC(=O)[C@H](Cc2c[nH]c3ccccc23)NC1=O [analog 2] (cyclo(A[Nva]W[β3hL]))
anti HDAC potency [14]: without loss of anti HDAC potency

Source: patent US10143720B2, “Modulation of hepatitis B virus cccDNA transcription” (DREXEL UNIVERSITY, priority 2012, dated 2018)
